Data taken from patent US10813859B2, “Wrinkle ameliorating agent” (POLA CHEMICAL INDUSTRIES, INC., priority 2016, dated 2020).

Assays:
[1] = Moisture absorbing property confirmation test; type: physicochemical; settings: humidity 75%, 25° C.
Procedure: Compound 1 was precisely weighed in a 1 g weighing bottle, left in a desiccator with a humidity at 75% (a saturated aqueous solution of sodium chloride) in an open state, and stored at 25° C. The weight was measured from the start of the storage until 30 days thereafter, and the coefficient of moisture absorption was determined by the following formula. Coefficient of moisture absorption (%)=(M3−M2)/(M2−M1)×100
M1: The mass of the weighing bottle (g)
M2: The mass of the weighing bottle containing a sample at the start of the storage (g)
M3: The mass of the weighing bottle containing the sample after the storage (g)

[2] = tested on: hyaluronan synthetase gene (HAS1) in normal human epidermal keratinocyte; test: Test for confirming expression-increasing effect of epidermal hyaluronan synthetase gene; type: cell-based; settings: 0.2% by mass in medium, 24 hours; qPCR, ACTB internal standard; FIG. 5
Procedure: Normal human epidermal keratinocyte (produced by Kurabo Industries Ltd.) was inoculated in a 24-well plate at […] cells/well, and incubated overnight at 37° C. in a 5% CO2 environment. The culture medium was exchanged with a medium containing 0.2% by mass of Compound 1, or glycerol (produced by Wako Pure Chemical Industries, Ltd.) and cultured at 37° C. in a 5% CO2 environment for 24 hours.
Using a mRNA recovery kit (FastLane Cell SYBR Green Kit, produced by Qiagen N.V.), mRNA was extracted by a conventional method. Using a qPCR kit (One Step SYBR PrimeScript RT-PCR Kit II, produced by Takara Bio Inc.), the expression level of the hyaluronan synthetase gene (HAS 1) was analyzed by qPCR using ACTB as an internal standard (7500 Real-Time PCR System, produced by Applied Biosystems). Data analysis was carried out by the ΔΔCt method.
The respective relative values were calculated with respect to the expression level of the gene in a medium not containing Compound 1 and glycerol (non-addition group) as 1.

| moisture absorbing property ([1]; up to 30 days) | Coefficient of moisture absorption (mean value, n = 3) ([1]; storage time 1 day) | Coefficient of moisture absorption (mean value, n = 3) ([1]; storage time 3 days) | Coefficient of moisture absorption (mean value, n = 3) ([1]; storage time 7 days) | Coefficient of moisture absorption (mean value, n = 3) ([1]; storage time 14 days) | Coefficient of moisture absorption (mean value, n = 3) ([1]; storage time 30 days) | expression level of the hyaluronan synthetase gene (HAS 1) compared to the non-addition group [2] | SMILES |
| --- | --- | --- | --- | --- | --- | --- | --- |
| confirmed | 13.2% | 19.0% | 20.5% | 21.0% | 21.2% | significantly larger | OCC(O)COC1CCCCC1 (centres unmarked) [Compound 1, 3-cyclohexyloxy-1,2-propanediol] |
|  |  |  |  |  |  | no significant difference | OCC(O)CO [glycerol, reference compound] |
